Laboratory results taken from patent US10927389B2, “Method of producing chemical substance by continuous fermentation” (Toray Industries, Inc., priority 2014, dated 2021).

How the values were obtained:
[1] = system: Arxula adeninivorans NBRC 10858 strain; experiment: Acetone resistance test; format: cell-based; details: strain NBRC 10858; 4% (v/v) acetone in YPAD medium, 30° C., 40 hours; absorbance at 600 nm with acetone ÷ without ×100
Procedure: (§1) To 5 ml of YPAD medium, 200 μL of acetone was added so that the final concentration became 4% (v/v). […] Absorbance at 600 nm of YPAD medium (with acetone)÷absorbance at 600 nm of YPAD medium×100 (7)

[2] = system: Candida boidinii BCRC 22528 strain; experiment: Acetone resistance test; format: cell-based; details: strain BCRC 22528; 4% (v/v) acetone in YPAD medium, 30° C., 40 hours; absorbance at 600 nm with acetone ÷ without ×100
Procedure: as §1

[3] = system: Candida methanosorbosa BCRC 21489 strain; experiment: Acetone resistance test; format: cell-based; details: strain BCRC 21489; 4% (v/v) acetone in YPAD medium, 30° C., 40 hours; absorbance at 600 nm with acetone ÷ without ×100
Procedure: as §1

[4] = system: Candida pignaliae NBRC 10307 strain; experiment: Acetone resistance test; format: cell-based; details: strain NBRC 10307; 4% (v/v) acetone in YPAD medium, 30° C., 40 hours; absorbance at 600 nm with acetone ÷ without ×100
Procedure: as §1

[5] = system: Candida tropicalis NBRC 199 strain; experiment: Acetone resistance test; format: cell-based; details: strain NBRC 199; 4% (v/v) acetone in YPAD medium, 30° C., 40 hours; absorbance at 600 nm with acetone ÷ without ×100
Procedure: as §1

[6] = system: Kluyveromyces marxianus NBRC 272 strain; experiment: Acetone resistance test; format: cell-based; details: strain NBRC 272; 4% (v/v) acetone in YPAD medium, 30° C., 40 hours; absorbance at 600 nm with acetone ÷ without ×100
Procedure: as §1

[7] = system: Lindnera fabianii NBRC 1253 strain; experiment: Acetone resistance test; format: cell-based; details: strain NBRC 1253; 4% (v/v) acetone in YPAD medium, 30° C., 40 hours; absorbance at 600 nm with acetone ÷ without ×100
Procedure: as §1

[8] = system: Pichia stipitis BCRC 21777 strain; experiment: Acetone resistance test; format: cell-based; details: strain BCRC 21777; 4% (v/v) acetone in YPAD medium, 30° C., 40 hours; absorbance at 600 nm with acetone ÷ without ×100
Procedure: as §1

[9] = system: Saccharomyces cerevisiae NBRC 10505 strain; experiment: Acetone resistance test; format: cell-based; details: strain NBRC 10505; 4% (v/v) acetone in YPAD medium, 30° C., 40 hours; absorbance at 600 nm with acetone ÷ without ×100
Procedure: as §1

[10] = system: Saccharomyces cerevisiae NBRC 10505/ΔPDC1::LDH strain; experiment: Acetone resistance test; format: cell-based; details: strain NBRC 10505 ΔPDC1::LDH; 4% (v/v) acetone in YPAD medium, 30° C., 40 hours; absorbance at 600 nm with acetone ÷ without ×100
Procedure: as §1

[11] = system: Saccharomyces cerevisiae NBRC 2260 strain; experiment: Acetone resistance test; format: cell-based; details: strain NBRC 2260; 4% (v/v) acetone in YPAD medium, 30° C., 40 hours; absorbance at 600 nm with acetone ÷ without ×100
Procedure: as §1

[12] = system: Saccharomyces cerevisiae NBRC 2260/ΔPDC1::LDH strain; experiment: Acetone resistance test; format: cell-based; details: strain NBRC 2260 ΔPDC1::LDH; 4% (v/v) acetone in YPAD medium, 30° C., 40 hours; absorbance at 600 nm with acetone ÷ without ×100
Procedure: as §1

[13] = system: Saccharomyces cerevisiae NITE BP-1087 strain; experiment: Acetone resistance test; format: cell-based; details: strain BP-1087; 4% (v/v) acetone in YPAD medium, 30° C., 40 hours; absorbance at 600 nm with acetone ÷ without ×100
Procedure: as §1

[14] = system: Saccharomyces cerevisiae NITE BP-1088 strain; experiment: Acetone resistance test; format: cell-based; details: strain BP-1088; 4% (v/v) acetone in YPAD medium, 30° C., 40 hours; absorbance at 600 nm with acetone ÷ without ×100
Procedure: as §1

[15] = system: Saccharomyces cerevisiae NITE BP-1089 strain; experiment: Acetone resistance test; format: cell-based; details: strain BP-1089; 4% (v/v) acetone in YPAD medium, 30° C., 40 hours; absorbance at 600 nm with acetone ÷ without ×100
Procedure: as §1

[16] = system: Pichia mexicana NBRC 10320 strain; experiment: Acetone resistance test; format: cell-based; details: strain NBRC 10320; 4% (v/v) acetone in YPAD medium, 30° C., 40 hours; absorbance at 600 nm with acetone ÷ without ×100
Procedure: as §1
As a result, the Pichia mexicana NBRC 10320 strain was found not to be a vanillin-resistant yeast, but found to be an acetone-resistant yeast.

[17] = system: Saccharomyces cerevisiae NBRC 10505 strain; experiment: Vanillin resistance test; format: cell-based; details: strain NBRC 10505; vanillin 1 g/L in YPAD medium, 30° C., 40 hours; absorbance at 600 nm with vanillin ÷ without ×100
Procedure: (§2) The Saccharomyces cerevisiae NBRC 10505 strain was inoculated using a platinum loop to 20-ml test tubes each containing 5 ml of YPAD medium, and then cultured with shaking at 30° C. overnight (preculture). The YPAD medium had the following composition: 1% (w/v) yeast extract, 2% (w/v) bactopeptone, 2% (w/v) glucose, and 0.04% (w/v) adenine. A vanillin concentrate (200 g/L in DMSO) was prepared, and 25 μL of the vanillin concentrate was added to 5 ml of YPAD medium so that the final concentration became 1 g/L. To provide vanillin-free YPAD medium, 25 μl of DMSO alone was added to YPAD medium. The preculture liquid was inoculated to the YPAD medium (with vanillin) and the vanillin-free YPAD medium such that OD became 0.2, and culture was performed at 30° C. for 40 hours. After the culture, OD 600 nm of the culture liquid of each strain was measured, and a value was calculated according to Equation (6). Absorbance at 600 nm of YPAD medium (with vanillin)÷absorbance at 600 nm of YPAD medium×100 (6).

[18] = system: Candida pignaliae NBRC 10307 strain; experiment: Vanillin resistance test; format: cell-based; details: strain NBRC 10307; vanillin 1 g/L in YPAD medium, 30° C., 40 hours; absorbance at 600 nm with vanillin ÷ without ×100
Procedure: (§3) The YPAD medium had the following composition: 1% (w/v) yeast extract, 2% (w/v) bactopeptone, 2% (w/v) glucose, and 0.04% (w/v) adenine. A vanillin concentrate (200 g/L in DMSO) was prepared, and 25 μL of the vanillin concentrate was added to 5 ml of YPAD medium so that the final concentration became 1 g/L. To provide vanillin-free YPAD medium, 25 μl of DMSO alone was added to YPAD medium. The preculture liquid was inoculated to the YPAD medium (with vanillin) and the vanillin-free YPAD medium such that OD became 0.2, and culture was performed at 30° C. for 40 hours. After the culture, OD 600 nm of the culture liquid of each strain was measured, and a value was calculated according to Equation (6). Absorbance at 600 nm of YPAD medium (with vanillin)÷absorbance at 600 nm of YPAD medium×100 (6).

[19] = system: Pichia mexicana NBRC 10320 strain; experiment: Vanillin resistance test; format: cell-based; details: strain NBRC 10320; vanillin 1 g/L in YPAD medium, 30° C., 40 hours; absorbance at 600 nm with vanillin ÷ without ×100
Procedure: The Pichia mexicana NBRC 10320 strain was tested by the same method as in Reference Example 5, and values were calculated according to Equation (6) and Equation (7) (Table 1).

[20] = system: Saccharomyces cerevisiae NBRC 2260 strain; experiment: Vanillin resistance test; format: cell-based; details: strain NBRC 2260; vanillin 1 g/L in YPAD medium, 30° C., 40 hours; absorbance at 600 nm with vanillin ÷ without ×100
Procedure: as §2

[21] = system: Kluyveromyces marxianus NBRC 272 strain; experiment: Vanillin resistance test; format: cell-based; details: strain NBRC 272; vanillin 1 g/L in YPAD medium, 30° C., 40 hours; absorbance at 600 nm with vanillin ÷ without ×100
Procedure: as §3
The Kluyveromyces marxianus NBRC 272 strain was tested by the same method as in Reference Example 5, and values were calculated according to Equation (6) and Equation (7) (Table 1).

[22] = system: Candida tropicalis NBRC 199 strain; experiment: Vanillin resistance test; format: cell-based; details: strain NBRC 199; vanillin 1 g/L in YPAD medium, 30° C., 40 hours; absorbance at 600 nm with vanillin ÷ without ×100
[23] = system: Arxula adeninivorans NBRC 10858 strain; experiment: Vanillin resistance test; format: cell-based; details: strain NBRC 10858; vanillin 1 g/L in YPAD medium, 30° C., 40 hours; absorbance at 600 nm with vanillin ÷ without ×100
Procedure: as §2
The Arxula adeninivorans NBRC 10858 strain was tested by the same method as in Reference Example 5, and values were calculated according to Equation (6) and Equation (7) (Table 1).

[24] = system: Lindnera fabianii NBRC 1253 strain; experiment: Vanillin resistance test; format: cell-based; details: strain NBRC 1253; vanillin 1 g/L in YPAD medium, 30° C., 40 hours; absorbance at 600 nm with vanillin ÷ without ×100
Procedure: The Lindnera fabianii NBRC 1253 strain was tested by the same method as in Reference Example 5, and a value was calculated according to Equation (6) and Equation (7) (Table 1).

[25] = system: Candida methanosorbosa BCRC 21489 strain; experiment: Vanillin resistance test; format: cell-based; details: strain BCRC 21489; vanillin 1 g/L in YPAD medium, 30° C., 40 hours; absorbance at 600 nm with vanillin ÷ without ×100
Procedure: The Candida methanosorbosa BCRC 21489 strain was tested by the same method as in Reference Example 5, and values were calculated according to Equation (6) and Equation (7) (Table 1).

[26] = system: Pichia stipitis BCRC 21777 strain; experiment: Vanillin resistance test; format: cell-based; details: strain BCRC 21777; vanillin 1 g/L in YPAD medium, 30° C., 40 hours; absorbance at 600 nm with vanillin ÷ without ×100
Procedure: as §3
The Pichia stipitis BCRC 21777 strain was tested by the same method as in Reference Example 5, and values were calculated according to Equation (6) and Equation (7) (Table 1).

[27] = system: Candida boidinii BCRC 22528 strain; experiment: Vanillin resistance test; format: cell-based; details: strain BCRC 22528; vanillin 1 g/L in YPAD medium, 30° C., 40 hours; absorbance at 600 nm with vanillin ÷ without ×100
Procedure: The Candida boidinii BCRC 22528 strain was tested by the same method as in Reference Example 5, and values were calculated according to Equation (6) and Equation (7) (Table 1).

[28] = system: Saccharomyces cerevisiae NITE BP-1087 strain; experiment: Vanillin resistance test; format: cell-based; details: strain BP-1087; vanillin 1 g/L in YPAD medium, 30° C., 40 hours; absorbance at 600 nm with vanillin ÷ without ×100
Procedure: as §2

[29] = system: Saccharomyces cerevisiae NITE BP-1088 strain; experiment: Vanillin resistance test; format: cell-based; details: strain BP-1088; vanillin 1 g/L in YPAD medium, 30° C., 40 hours; absorbance at 600 nm with vanillin ÷ without ×100
Procedure: as §2

[30] = system: Saccharomyces cerevisiae NITE BP-1089 strain; experiment: Vanillin resistance test; format: cell-based; details: strain BP-1089; vanillin 1 g/L in YPAD medium, 30° C., 40 hours; absorbance at 600 nm with vanillin ÷ without ×100
Procedure: as §2

[31] = system: Saccharomyces cerevisiae NBRC 10505/ΔPDC1::LDH strain; details: strain NBRC 10505 ΔPDC1::LDH; vanillin 1 g/L in YPAD medium, 30° C., 40 hours; absorbance at 600 nm with vanillin ÷ without ×100
Procedure: as §2

[32] = system: Saccharomyces cerevisiae NBRC 2260/ΔPDC1::LDH strain; details: strain NBRC 2260 ΔPDC1::LDH; vanillin 1 g/L in YPAD medium, 30° C., 40 hours; absorbance at 600 nm with vanillin ÷ without ×100
Procedure: as §2

## CC(C)=O [Acetone, acetone]
[1]
  Acetone resistance test result: 22
[2]
  Acetone resistance test result: 49
[3]
  Acetone resistance test result: 74
[4]
  Acetone resistance test result: 1.3
[5]
  Acetone resistance test result: 100
[6]
  Acetone resistance test result: 87
[7]
  Acetone resistance test result: 111
[8]
  Acetone resistance test result: 1.8
[9]
  Acetone resistance test result: 8.8
[10]
  Acetone resistance test result: 8
[11]
  Acetone resistance test result: 86
[12]
  Acetone resistance test result: 84
[13]
  Acetone resistance test result: 10
[14]
  Acetone resistance test result: 7.5
[15]
  Acetone resistance test result: 7.2
[16]
  Acetone resistance test result: 100

## COc1cc(C=O)ccc1O [Vanillin, vanillin]
[17]
  Vanillin resistance test result: 6.8
[18]
  Vanillin resistance test result: 1.9
[19]
  Vanillin resistance test result: 11
[20]
  Vanillin resistance test result: 83
[21]
  Vanillin resistance test result: 100
[22]
  Vanillin resistance test result: 82
[23]
  Vanillin resistance test result: 84
[24]
  Vanillin resistance test result: 95
[25]
  Vanillin resistance test result: 54
[26]
  Vanillin resistance test result: 22
[27]
  Vanillin resistance test result: 66
[28]
  Vanillin resistance test result: 9.2
[29]
  Vanillin resistance test result: 8.5
[30]
  Vanillin resistance test result: 7.8
[31]
  Vanillin resistance test result: 6.2
[32]
  Vanillin resistance test result: 82
